US20240360177A1, “PEPTIDES WITH ANTIMICROBIAL ACTIVITIES” (priority 2021, published 2024)
Converted amounts (≈) assume the structure as drawn. Like-named read-outs stand apart in the source and are kept apart here. Starred links: 1 amine or outer side, 2 acyl side, 3 side chain; linkers in the order of their positions; H or OH if unused. Non-standard residues stand in square brackets, D forms with d. Residues, ends and D or L forms follow the SMILES beside them. NH(CH2)9CO = O=C(CCCCCCCCCN[*:1])[*:2]; Aoc = NCCCCCCCC(=O)O; Ava = NCCCCC(=O)O

Legend:
Scedosporium spp. = conditions: 72 h
C. tropicalis = conditions: 24 h
C. neoformans = conditions: 72 h
C. auris = conditions: 24 h
in vitro [1] = conditions: human, EC50 cytotoxicity in HepG2, intracellular ATP assay
C. glabrata = conditions: 24 h
C. parapsilosis = conditions: 24 h
Fusarium spp. = conditions: 48 h
C. gattii = conditions: 72 h
C. albicans = conditions: 24 h
C. dubliniensis = conditions: 24 h
C. krusei = conditions: 24 h
[2] = Acute toxicity in CD-1 mice; conditions: both sexes, mouse, in vivo
Procedure: Acute toxicity and subacute toxicity of ACPs were tested in CD-1 mice. In the acute toxicity study, groups of CD-1 male or female mice were administered single intravenous or intraperitoneal escalating doses (n=2-3 per dose) of the peptides dissolved in normal saline for injection or in phosphate buffered saline. The intravenous dose was administered via tail vein with a slow push over 15-20 seconds. Doses were escalated based on tolerability.

in vitro [3] = conditions: human, human serum, full strength
[4] = mice
Coccidioides species = conditions: N = 10 strains; 48-72 hrs; >50% inhibition
[5] = Subacute toxicity in CD-1 mice; assay type: in vivo; conditions: daily IP for 7 days
Procedure: In the subacute toxicity study, groups of CD-1 male or female mice were administered seven consecutive daily intraperitoneal doses (n=3 per dose) of the peptides (SEQ ID NO: 7, SEQ ID NO: 29, SEQ ID NO: 53) dissolved in normal saline for injection. Each peptide was evaluated at 2 to 3 dose levels ranging from 2.5 to 7.5 mg/kg/day. Mice were weighed at least once daily and observed at least twice daily for any abnormal findings and determination of overall health. At 24 hrs after the last dose, mice were humanely euthanized, with blood collected through cardiac puncture into K2EDTA microtainers to assess hematological parameters. All three peptides were tolerated at the highest dose evaluated (7.5 mg/kg/day) for 7 days.

[6] = tested on: Pseudomonas aeruginosa ATCC 27853; assay type: cell-based
[7] = tested on: Escherichia coli ATCC 25922; assay type: cell-based
[8] = tested on: Staphylococcus aureus ATCC 29213; assay type: cell-based
[9] = tested on: Mycobacterium smegmatis ATCC 700084; assay type: cell-based; conditions: ATCC 700084, 48 h
[10] = tested on: Klebsiella pneumoniae ATCC 13883; assay type: cell-based
[11] = tested on: Salmonella senftenberg CDC 127; assay type: cell-based
[12] = tested on: Microsporum gypseum ATCC 14683
[13] = tested on: Shigella sonnei MMX 10772; experiment: Antibacterial broth microdilution MIC, Shigella sonnei; assay type: cell-based; conditions: CAMHB
[14] = tested on: Trichophyton rubrum ATCC MYA-4438
[15] = tested on: Epidermophyton floccosum ATCC 52066
[16] = tested on: Mycobacterium fortuitum ATCC 110; experiment: Antibacterial broth microdilution MIC, Mycobacterium fortuitum; assay type: cell-based; conditions: 48 hrs

Structure (SMILES)	MIC Range Cryptococcus spp. (Cryptococcus spp.) [µg/mL]	MIC Range Scedosporium spp. (Scedosporium spp.) [µg/mL]	MIC C. tropicalis (C. tropicalis) [µg/mL]	MIC C. neoformans (C. neoformans) [µg/mL]	MIC Range Lomentospora prolificans (Lomentospora prolificans) [µg/mL]	MIC C. auris (C. auris) [µg/mL]	EC50 (in vitro [1]) [µg/mL]	MIC C. glabrata (C. glabrata) [µg/mL]	MIC C. parapsilosis (C. parapsilosis) [µg/mL]	MIC Range Fusarium spp. (Fusarium spp.) [µg/mL]	MIC C. gattii (C. gattii) [µg/mL]	MIC C. albicans (C. albicans) [µg/mL]	MIC C. dubliniensis (C. dubliniensis) [µg/mL]	MIC Range Filamentous Fungi (Filamentous Fungi) [µg/mL]	MIC C. krusei (C. krusei) [µg/mL]	Activity at 24 h MIC50 against Candida spp. (Candida spp.) [µg/mL]	Activity at 24 h MIC90 against Candida spp. (Candida spp.) [µg/mL]	Activity at 48 h MIC50 against Candida spp. (Candida spp.) [µg/mL]	Activity at 48 h MIC90 against Candida spp. (Candida spp.) [µg/mL]	MIC Pseudomonas aeruginosa [6] [µg/mL]	also measured
N=C(N)NCCC[C@@H](N)C(=O)N[C@@H](CCCNC(=N)N)C(=O)N[C@H](CCCNC(=N)N)C(=O)N1CCC[C@H]1C(=O)N[C@H](CCCNC(=N)N)C(=O)N[C@@H](CCCNC(=N)N)C(=O)N[C@H](CCCNC(=N)N)C(=O)N1CCC[C@H]1C(=O)N[C@H](CCCNC(=N)N)C(=O)N[C@@H](CCCNC(=N)N)C(=O)N[C@H](CCCNC(=N)N)C(=O)N1CCC[C@H]1C(=O)N[C@H](CCCNC(=N)N)C(=O)N[C@@H](CCCNC(=N)N)C(=O)N[C@H](CCCNC(=N)N)C(N)=O [SEQ ID NO: 66, rRr-P-rRr-P-rRr-P-rRr-NH2] (H-[dR]R[dR]P[dR]R[dR]P[dR]R[dR]P[dR]R[dR]-NH2)	0.5 to 1	0.5 to 2	0.25 (≈ 0.115 µM)	0.5 (≈ 0.229 µM)	2 (≈ 0.916 µM)	8 (≈ 3.67 µM)	> 300	0.5 (≈ 0.229 µM)	0.25 (≈ 0.115 µM)	0.12 to 8	1 (≈ 0.458 µM)	0.25 (≈ 0.115 µM)	0.25 (≈ 0.115 µM)	0.12 to 8	0.5 (≈ 0.229 µM)	0.5	8	0.5	16		
N=C(N)NCCC[C@@H](N)C(=O)N[C@@H](CCCNC(=N)N)C(=O)N[C@H](CCCNC(=N)N)C(=O)N1CCC[C@H]1C(=O)N[C@H](CCCNC(=N)N)C(=O)N[C@@H](CCCNC(=N)N)C(=O)N[C@H](CCCNC(=N)N)C(=O)N1CCC[C@H]1C(=O)N[C@H](CCCNC(=N)N)C(=O)N[C@@H](CCCNC(=N)N)C(=O)N[C@H](CCCNC(=N)N)C(=O)N[C@@H](CCCNC(=N)N)C(=O)N1CCC[C@H]1C(=O)N[C@H](CCCNC(=N)N)C(=O)N[C@@H](CCCNC(=N)N)C(=O)N[C@H](CCCNC(=N)N)C(=O)N[C@@H](CCCNC(=N)N)C(N)=O [SEQ ID NO: 53, rRr-P-rRr-P-rRrR-P-rRrR-NH2] (H-[dR]R[dR]P[dR]R[dR]P[dR]R[dR]RP[dR]R[dR]R-NH2)	0.25 to 0.5	0.25 (≈ 0.1 µM)	0.5 (≈ 0.2 µM)	0.5 (≈ 0.2 µM)	0.12 (≈ 0.0481 µM)	0.25 (≈ 0.1 µM)	> 300	0.5 (≈ 0.2 µM)	0.25 (≈ 0.1 µM)	0.25 (≈ 0.1 µM)	0.25 (≈ 0.1 µM)	0.5 (≈ 0.2 µM)	0.25 (≈ 0.1 µM)	0.12 to 0.25	0.5 (≈ 0.2 µM)	0.5	0.5	0.5	2		MTD ([2]; single IP dose, read-out: Tolerated single intraperitoneal dose): 10 to 15 mg/kg; MTD ([2]; single IV dose via tail vein, read-out: Tolerated single intravenous dose): 5 to 7.5 mg/kg; remaining at 2 h, 5 μM (in vitro [3]): ~100%; Kidney to Plasma Concentration Ratio Day 7 ([4]; 6 hrs post dose of 7.5 mg/kg IP once daily, Day 7, mean ± SD, n = 3): 916 ± 36; Kidney to Plasma Concentration Ratio Day 1 ([4]; 6 hrs post dose of 7.5 mg/kg IP, Day 1, mean ± SD, n = 3): 179 ± 106; Day 1 AUC ratio, kidney to plasma ([4]; IP 7.5 mg/kg, Day 1): 58.3; MIC Range Coccidioides species (Coccidioides species): 0.06 to 0.25 µg/mL; Tolerated dose (highest dose evaluated) [5]: 7.5 mg/kg/day; Clinical or hematological adverse effects ([5]; up to 7.5 mg/kg/day): No significant clinical or hematological adverse effects were observed
N=C(N)NCCC[C@@H](N)C(=O)N[C@@H](CCCNC(=N)N)C(=O)N[C@H](CCCNC(=N)N)C(=O)NCCCCC(=O)N[C@H](CCCNC(=N)N)C(=O)N[C@@H](CCCNC(=N)N)C(=O)N[C@H](CCCNC(=N)N)C(=O)NCCCCC(=O)N[C@H](CCCNC(=N)N)C(=O)N[C@@H](CCCNC(=N)N)C(=O)N[C@H](CCCNC(=N)N)C(=O)N[C@@H](CCCNC(=N)N)C(=O)NCCCCC(=O)N[C@H](CCCNC(=N)N)C(=O)N[C@@H](CCCNC(=N)N)C(=O)N[C@H](CCCNC(=N)N)C(=O)N[C@@H](CCCNC(=N)N)C(N)=O [SEQ ID NO: 18, rRr-(Ava)-rRr-(Ava)-rRrR-(Ava)-rRrR-NH2] (H-[dR]R[dR][Ava][dR]R[dR][Ava][dR]R[dR]R[Ava][dR]R[dR]R-NH2)	0.25 to 0.5	0.25 to 0.5	0.5 (≈ 0.2 µM)	0.25 (≈ 0.1 µM)	0.5 (≈ 0.2 µM)	0.25 (≈ 0.1 µM)	> 300	0.5 (≈ 0.2 µM)	0.25 (≈ 0.1 µM)	0.25 to 0.5	0.25 (≈ 0.1 µM)	1 (≈ 0.4 µM)	0.5 (≈ 0.2 µM)	0.25 to 0.5	0.5 (≈ 0.2 µM)	0.5	1	0.5	2	64 (≈ 25.6 µM)	MIC Escherichia coli [7]: 32 µg/mL (≈ 12.8 µM); MIC Staphylococcus aureus [8]: 16 µg/mL (≈ 6.4 µM)
N=C(N)NCCC[C@@H](N)C(=O)N[C@@H](CCCNC(=N)N)C(=O)N[C@H](CCCNC(=N)N)C(=O)NCCCCCCCCCC(=O)N[C@H](CCCNC(=N)N)C(=O)N[C@@H](CCCNC(=N)N)C(=O)N[C@H](CCCNC(=N)N)C(=O)NCCCCCCCC(=O)N[C@H](CCCNC(=N)N)C(=O)N[C@@H](CCCNC(=N)N)C(=O)N[C@H](CCCNC(=N)N)C(=O)N[C@@H](CCCNC(=N)N)C(=O)NCCCCCCCC(=O)N[C@H](CCCNC(=N)N)C(=O)N[C@@H](CCCNC(=N)N)C(=O)N[C@H](CCCNC(=N)N)C(=O)N[C@@H](CCCNC(=N)N)C(=O)NCCCCCCCC(=O)O [SEQ ID NO: 34, rRr-(Ada)-rRr-(Aoa)-rRrR-(Aoa)-rRrR-Aoa] (H-[dR]R[dR][NH(CH2)9CO][dR]R[dR][Aoc][dR]R[dR]R[Aoc][dR]R[dR]R[Aoc]-OH)			0.5 (≈ 0.179 µM)	0.5 (≈ 0.179 µM)		0.5 (≈ 0.179 µM)	162 (≈ 57.9 µM)	8 (≈ 2.86 µM)	0.5 (≈ 0.179 µM)	0.25 to 2	0.5 (≈ 0.179 µM)	2 (≈ 0.715 µM)	0.5 (≈ 0.179 µM)		1 (≈ 0.357 µM)					16 (≈ 5.72 µM)	MIC Mycobacterium smegmatis [9]: 1 µg/mL (≈ 0.357 µM); MIC Klebsiella pneumoniae [10]: 8 µg/mL (≈ 2.86 µM); MIC Salmonella senftenberg [11]: 8 µg/mL (≈ 2.86 µM); MIC Microsporum gypseum [12]: 32 µg/mL (≈ 11.4 µM); MIC Shigella sonnei [13]: 4 µg/mL (≈ 1.43 µM); MIC Escherichia coli [7]: 4 µg/mL (≈ 1.43 µM); MIC Trichophyton rubrum [14]: 4 µg/mL (≈ 1.43 µM); MIC Staphylococcus aureus [8]: 16 µg/mL (≈ 5.72 µM); MIC Epidermophyton floccosum [15]: 8 µg/mL (≈ 2.86 µM); MIC Mycobacterium fortuitum [16]: 2 µg/mL (≈ 0.715 µM)
